Laboratory results from patent publication US5961952A, “^99m Tc-tertiary-butyl isonitrile as breast tumor imaging agents” (DuPont Pharmaceuticals Company, priority 1997, dated 1999).

Experiments:
SKBR3 breast tumor cells = test: Uptake assay in SKBR3 breast tumor cells; type: cell-based, human; conditions: average of two assays, variance 5-20%
Procedure: (§1) The cell uptake assay protocol was developed by Delmon-Moingeon et al.^10 Breast tumor cells (SKBR3) were incubated in media over a 2 hr time course with each test sample. This line has been identified as having high membrane potential and has been characterized for uptake of ^99m Tc-sestamibi. […] The first time point (10 min.) was used to compare compounds, as this was felt to represent the non-equilibrium kinetics of delivery experienced in vivo.

A549 lung tumor cells = test: Uptake assay in A549 lung tumor cells; type: cell-based; conditions: average of two assays, variance 5-20%
Procedure: [Worded in the source for another cell line; this cell line is reported under the same test.] as §1

[1] = test system: HBL100 nontransformed breast cells; test: Uptake assay in HBL100 nontransformed breast cells; type: cell-based; conditions: average of two assays, variance 5-20%
[2] = test system: SKBR3 human breast tumor cells vs CV-1 normal epithelial cells; test: Washout assay: retention in an adherent cell assay, ratio of tumor (SKBR3)/normal (CV-1); type: cell-based; conditions: for Retention, ratio of tumor/normal 99mTc activity: SKBR3/CV-1, mean of 4 slips per cell line
Procedure: (§2) Two cell lines are grown on cover slips: SKBR3 human breast tumor with known high membrane potential, and an epithelial cell line (CV1) of low membrane potential. Breast tumor cells (SKBR3) and normal epithelial cells (CV-1) are grown on cover slips (5×10^5 cells) and incubated for 60 min with 100 μCi of ^99m Tc-isonitrile. The slips are then incubated for 120 min in nonisotopic medium with repeated rinses. ^99m Tc activity remaining on the slips is determined at 0, 0.5, 1, 1.5, and 2 hr. Results are expressed as the ratio of tumor/normal ^99m Tc activity at each of the times. Values are the mean of 4 slips per cell line.
The washout assay characterizes the retention of compounds having gained access to the cell. A significant feature of this assay is that each cover slip was given a cell count at the end of the assay, and results were corrected for actual cell density. Because of high nonspecific binding to the coverslips, early times during washout are not meaningful, and so actual uptake and pharmacokinetics during the first phase of washout are not available. The results, however, are useful in predicting prolonged retention of compounds after blood levels have cleared.

[3] = test system: breast tumors in c-neu oncomice; test: Pairwise imaging in the c-neu oncomouse; type: in vivo, mouse; conditions: for Mean of Tumor Ratio Test/99mTc-sestamibi +/- Std Dev: paired imaging, c-neu oncomice, 6 animals (14 tumors), ** p < .01
From the text: The pairwise model was designed to directly compare the images of ^99m Tc-TBI with ^99m Tc-sestamibi. The same mouse was imaged at two separate times within 96 hr of each other with the test compound at one time and ^99m Tc-sestamibi at the other. The order of test and reference compound injected were random, but each study included at least an n=2 in each direction.
Female c-neu oncomice (18-30 g) and FVB wildtype mice were used in the pairwise studies. Mice with breast tumors between 1-15 mm were selected for imaging. Animals were anesthetized with sodium pentobarbital (IP) at a dose of 80 mg/kg. Tumors were measured with dial calipers and recorded on mouse templates. The tail was immersed in hot water for 1-2 min, wiped with alcohol, and injected via the tail vein (28 gauge insulin needle) with […] (0.15mL) of prepared ^99m Tc-TBI. The mouse was secured in a supine position on the dissection board with limbs and head extended to expose the chest area for optimal imaging of breast tumors. All image acquisitions were performed using a Picker Digital Dyna Gamma Camera, a Siemens MicroDelta terminal/MAXDELTA system, and a custom-made 1 mm pinhole collimator mounted on the gamma camera. The general static acquisition protocol was employed, using an acquisition matrix of 256×256 pixels, in word mode. The mouse was placed at a distance of 3 cm from the surface of the dissection board to the bottom of the collimator. The anterior view of the upper torso of the animal was acquired at each time point. Consecutive images were collected starting at 10 min post injection. Six 10 min images were collected at the 3 cm distance and one 10 min image was collected of the whole body at 15 cm to determine any tail vein activity. […] Total activity injected was determined by measuring the syringe before and after injection, then corrected for decay back to the time of injection. The pairwise images within each study were normalized for injected dose and regions of interest were taken over breast tumors and the heart. The mean ratio of ^99m Tc-TBI to ^99m Tc-sestamibi in the tumor was reported.

SKBR3 tumor cells = test: Tumor cell washout kinetics (t1/2); type: cell-based, human; conditions: washout from SKBR3 cells; for 1/2 life SKBR3 Tumor Cells: second phase of biphasic kinetics
Procedure: as §2
The half lives were also calculated for the washout of ^99m Tc-isonitriles from SKBR3 cells.

heart = conditions: Example 5 of Bergstein et al, U.S. Pat. No. 4,988,827; compared with ether isonitriles; cited from earlier work
[4] = test system: breast adenocarcinomas in c-neu oncomice; test: Dual label whole body autoradiography and histochemistry; type: in vivo, mouse; conditions: c-neu OncoMouse, whole body autoradiography
Procedure: The test compound was given i.v. to a transgenic c-neu mouse (OncoMouse™). This mouse has been genetically constructed to spontaneously produce breast tumors. The tumors develop with the same cribriform pattern as observed in human tumors and have a similar pattern of blood supply.
Female c-neu oncomice bearing breast adenocarcinomas >0.5 cm in diameter were injected i.v. with 1-3 mCi of ^99m Tc-TBI and 5 μCi of C-14 2-deoxy-D-glucose. The mice were sacrificed at 30 min post injection by CO2 inhalation. The carcass was embedded and frozen in embedding medium and 20μ frozen sections were obtained in a cryotome. Autoradiograms of sections and standards were obtained on Kodak SB5 X-ray film. Adjacent sections (5μ) were obtained and stained with hemotoxylin and eosin (H&E). Images were digitized on a LOATS video-based computerized densitometer, and regions of intersect were obtained (% ID/g).

breast tumors = conditions: J. Nucl. Med. 1993, 34:149P; cited from earlier work

| Molecule | Uptake (% of total) (SKBR3 breast tumor cells; SKBR3, 10 minutes) [%] | Uptake (% of total) (SKBR3 breast tumor cells; SKBR3, 20 minutes) [%] | Uptake (% of total) (SKBR3 breast tumor cells; SKBR3, 60 minutes) [%] | Uptake (% of total) (A549 lung tumor cells; A549, 10 minutes) [%] | Uptake (% of total) (A549 lung tumor cells; A549, 20 minutes) [%] | Uptake (% of total) (A549 lung tumor cells; A549, 60 minutes) [%] | Uptake (% of total) ([1]; HBL100, 10 minutes) [%] | Uptake (% of total) ([1]; HBL100, 20 minutes) [%] | Uptake (% of total) ([1]; HBL100, 60 minutes) [%] | Retention, ratio of tumor/normal 99mTc activity ([2]; washout time 0 hr) | Retention, ratio of tumor/normal 99mTc activity ([2]; washout time 0.5 hr) | Retention, ratio of tumor/normal 99mTc activity ([2]; washout time 1 hr) | Retention, ratio of tumor/normal 99mTc activity ([2]; washout time 1.5 hr) | Retention, ratio of tumor/normal 99mTc activity ([2]; washout time 2 hr) | Mean of Tumor Ratio Test/99mTc-sestamibi +/- Std Dev [3] | 1/2 life SKBR3 Tumor Cells (SKBR3 tumor cells) | other results |
| --- | --- | --- | --- | --- | --- | --- | --- | --- | --- | --- | --- | --- | --- | --- | --- | --- | --- |
| ^99m Tc-tertiary-butyl isonitrile complex [TBI] | 71.1 | 68.1 | 67 | 49.8 | 45.3 | 43.1 | 61.3 | 62.4 | 64.3 | 12 | 24 | 31 | 35 | 37 | 1.33 +/-0.43 | 656.0 | retention in tumor cells during washout ([2]; tumor cell culture, in words): prolonged retention in tumor cells during washout; tumor uptake and retention in vivo, relative to 99mTc-sestamibi ([3]; in words): significantly increased tumor uptake and retention in vivo; increase in tumor retention/uptake compared with 99mTc-sestamibi ([3]; pairwise imaging, c-neu OncoMouse, p<0.01): 133%; increase in t1/2 (longer retention) compared with 99mTc-sestamibi (SKBR3 tumor cells): 6 fold; heart/liver and heart/lung uptake ratios (heart): low heart/liver and heart/lung uptake ratios |
| [C-]#[N+]CC(C)(C)OC.[C-]#[N+]CC(C)(C)OC.[C-]#[N+]CC(C)(C)OC.[C-]#[N+]CC(C)(C)OC.[C-]#[N+]CC(C)(C)OC.[C-]#[N+]CC(C)(C)OC.[Tc] [MIBI, reference compound] | 1.8 | 4.5 | 17.2 | 0.7 | 2.5 | 7.3 | 0.9 | 3.4 | 8.8 | 38 | 36 | 34 | 29 | 26 | 1 | 120.5 | correlation between breast tumor retention and tissue viability [4]: strong correlation; sensitivity for imaging breast tumors (breast tumors): > 90%; specificity for imaging breast tumors (breast tumors): > 70% |
